Measured values: patent publication US20260048155A1, “BIOCOMPATIBLE PARAHYDROGEN HYPERPOLARIZED SOLUTIONS BY PRECIPITATION AND RE-DISSOLUTION” (North Carolina State University, priority 2022, published 2026)

Experiment: Titration study of sodium pyruvate solubility / precipitation from methanol by added solvent
Type: physicochemical
Experimental: Precipitating and filtering of pyruvate from solutions using thermally polarized natural-abundance sodium pyruvate: Considering the finding of low pyruvate solubility herein, ethanol was an obvious first choice as the precipitating solvent. […] Other candidates (acetone, 1-propanol, and ethyl acetate) were tested next. All three solvents mixed with methanol and dissolved 6 mM of SABRE catalyst well. […] For each of the three solvents (FIG. 11) eight 500-μL batches of methanol containing different concentrations of pyruvate were prepared (cpyr∈[80, 60, 40, 30, 20, 8, 4, 2] mM). Then, 9.5 mL of the respective precipitating solvent were added to each sample. In all 80 mM samples, prominent and almost instantaneous precipitation was observed as the solutions lost transparency and became milky. For 1-propanol, acetone, and ethyl acetate, precipitation was visible for all mixtures with 40 mM, 20 mM, and 4 mM or more initial concentration of pyruvate, respectively. Additionally, as ethyl acetate and water are immiscible, a later purification of this solvent was expected to be advantageous (see below). Based on these observations, the rest of the study was continued with acetone and ethyl acetate.

precipitation on ethanol addition (9-fold volume of ethanol added to 80 mM in methanol): no precipitation was detected
initial pyruvate concentration in methanol at which precipitation was visible (500 μL methanol + 9.5 mL 1-propanol): ≥ 40 mM
initial pyruvate concentration in methanol at which precipitation was visible (500 μL methanol + 9.5 mL acetone): ≥ 20 mM
initial pyruvate concentration in methanol at which precipitation was visible (500 μL methanol + 9.5 mL ethyl acetate): ≥ 4 mM
Compound: CC(=O)C(=O)[O-].[Na+] [sodium pyruvate]
